Data: US7166609B2, “Pyrimidine-4,6-dicarboxylic acid diamides for selectively inhibiting collagenases” (Sanofi-Aventis Deutschland GmbH, priority 2002, dated 2007)

biological target: T1, catalytic domain of human collagenase 3 (MMP-13) (Homo sapiens, UniProt P45452); assay: Enzyme activity of the catalytic domain of human collagenase 3 (MMP-13), fluorogenic substrate; type: biochemical; conditions: catalytic domain, activated proenzyme, pH 7.5; read-out: IC50 MMP13
T1 construct: Determining the enzyme activity of the catalytic domain of human collagenase 3 (MMP-13); purchased INVITEK, Berlin 30 100 803
Experimental: Determining the enzyme activity of the catalytic domain of human collagenase 3 (MMP-13).
Activating the proenzyme:
2 parts by volume of proenzyme are incubated with 1 part by volume of APMA solution at 37° C. for 1.5 hours. The APMA solution is prepared from a 10 mmol/L solution of p-aminophenylmercuric acetate in 0.1 mmol/L NaOH by diluting with 3 parts by volume of tris/HCl buffer, pH 7.5 (see below). The pH is adjusted to between 7.0 and 7.5 by adding 1 mmol/L HCl. After the enzyme has been activated, it is diluted to a concentration of 1.67 μg/ml using the tris/HCl buffer.
In order to measure the enzyme activity, 10 μL of enzyme solution are incubated for 15 minutes with 10 μL of a 3% (v/v) buffered solution of dimethyl sulfoxide (reaction 1). In order to measure the enzyme inhibitor activity, 10 μL of enzyme solution are incubated with 10 μL of a 3% (v/v) buffered solution of dimethyl sulfoxide containing the enzyme inhibitor (reaction 2).
In the case of both reaction 1 and reaction 2, the enzyme reaction is monitored by fluorescence spectroscopy (328 nm (extinction)/393 nm (emission)) after adding 10 μL of a 3% (v/v) aqueous solution of dimethyl sulfoxide containing 0.75 mmol of the substrate/L.
The enzyme activity is depicted as increase in extinction/minute.
The effect of the inhibitor is calculated as a percentage inhibition using the following formula: % inhibition=100−[(increase in extinction/minute in reaction 2)/(increase in extinction/minute in reaction 1)×100].
The IC50, i.e. the inhibitor concentration which is required for inhibiting the enzyme activity by 50%, is determined graphically by plotting the percentage inhibitions at different inhibitor concentrations.
The buffer solution contains 0.05% Brij (Sigma, Deisenhofen, Germany) and 0.1 mol of tris/HCl/L, 0.1 mol of NaCl/L and 0.01 mol of CaCl2/L (pH=7.5). The enzyme solution contains 1.67 μg of the enzyme domain/mL.
The substrate solution contains 0.75 mmol/L of the fluorogenic substrate (7-methoxycoumarin-4-yl)acetyl-Pro-Leu-Gly-Leu-3-(2′,4′-dinitrophenyl)-L-2,3-diaminopropionyl-Ala-Arg-NH2 (Bachem, Heidelberg, Germany).

IC50	Compound
3 nM	COc1cccc(CNC(=O)c2cc(C(=O)NCc3ccc(NC(=O)NC(=O)c4ccccc4)cc3)ncn2)c1 [Example 147]
30 nM	O=C(NCc1ccc2c(c1)CCO2)c1cc(C(=O)NCc2cccs2)ncn1 [Example 39]
23 nM	Cc1cc(CNC(=O)c2cc(C(=O)NCc3ccc(C(=O)NCCO)cc3)ncn2)ccc1F [Example 76]
20 nM	O=C(NO)c1ccc(CNC(=O)c2cc(C(=O)NCc3ccc4c(c3)CCO4)ncn2)cc1 [Example 94]
